Source: PubChem BioAssay (NCI)
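Where inhibition never reached the appropriate level, the endpoint shown equals the highest concentration tested. Otherwise, values were interpolated linearly from a five-concentration, 48-hour dose response in 96-well plates. GI50 marks 50% less growth. TGI is the concentration that stops growth completely.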

Tests used:
Experiment in all cases: inhibition of tumour cell growth, NCI panel, 48 h
[1] = test system: HCT-15 colon
[2] = test system: SR leukemia
[3] = test system: SK-MEL-28 melanoma
[4] = test system: CAKI-1 renal
[5] = test system: CCRF-CEM leukemia
[6] = test system: SK-OV-3 ovarian
[7] = test system: SW-620 colon
[8] = test system: HS 578T breast
[9] = test system: SF-295 CNS
[10] = test system: MCF7 breast
[11] = test system: T-47D breast
[12] = test system: UO-31 renal
[13] = test system: EKVX NSCLC
[14] = test system: HT29 colon
[15] = test system: PC-3 prostate
[16] = test system: HCT-116 colon
[17] = test system: SNB-75 CNS
[18] = test system: NCI-H460 lung
[19] = test system: SN12C renal
[20] = test system: U251 CNS
[21] = test system: RPMI-8226 leukemia
[22] = test system: K-562 leukemia
[23] = test system: ACHN renal
[24] = test system: HL-60(TB) leukemia
[25] = test system: OVCAR-8 ovarian
[26] = test system: A498 renal
[27] = test system: NCI/ADR-RES ovarian
[28] = test system: HOP-62 NSCLC
[29] = test system: DU-145 prostate
[30] = test system: NCI-H226 lung
[31] = test system: HCC-2998 colon
[32] = test system: MDA-MB-231 breast
[33] = test system: BT-549 breast
[34] = test system: OVCAR-4 ovarian
[35] = test system: UACC-257 melanoma
[36] = test system: SK-MEL-2 melanoma
[37] = test system: SK-MEL-5 melanoma
[38] = test system: UACC-62 melanoma
[39] = test system: OVCAR-3 ovarian
[40] = test system: A549 NSCLC
[41] = test system: SNB-19 CNS
[42] = test system: M14 melanoma
[43] = test system: COLO 205 colon
[44] = test system: SF-268 CNS
[45] = test system: 786-0 renal
[46] = test system: LOX IMVI melanoma
[47] = test system: OVCAR-5 ovarian
[48] = test system: HOP-92 NSCLC
[49] = test system: NCI-H522 lung
[50] = test system: MOLT-4 leukemia
[51] = test system: SF-539 CNS
[52] = test system: MDA-MB-435
[53] = test system: MALME-3M melanoma
[54] = test system: TK-10 renal
[55] = test system: KM12 colon
[56] = test system: RXF 393 renal

## Cn1cc(-c2cc(N)n3nc(-c4cn(C)c5ccc(F)cc45)cc3n2)c2cc(F)ccc21
[1]
  GI50: 1.85 µM
  TGI: 3.94 µM
[2]
  GI50: 1.97 µM
  TGI: 8.4 µM
[3]
  GI50: 1.79 µM
  TGI: 3.23 µM
[4]
  GI50: 2.04 µM
  TGI: 4.42 µM
[5]
  GI50: 2.75 µM
  TGI: 7.92 µM
[6]
  GI50: 20.9 µM
  TGI: 40.5 µM
[7]
  GI50: 1.78 µM
  TGI: 3.41 µM
[8]
  GI50: 2.45 µM
  TGI: 5.9 µM
[9]
  GI50: 1.94 µM
  TGI: 3.73 µM
[10]
  GI50: 1.67 µM
  TGI: 3.19 µM
[11]
  GI50: 1.75 µM
  TGI: 3.69 µM
[12]
  GI50: 1.52 µM
  TGI: 2.95 µM
[13]
  GI50: 1.73 µM
  TGI: 3.5 µM
[14]
  GI50: 1.64 µM
  TGI: 3.2 µM
[15]
  GI50: 1.89 µM
  TGI: 3.84 µM
[16]
  GI50: 1.85 µM
  TGI: 3.57 µM
[17]
  GI50: 2.29 µM
  TGI: 12.4 µM
[18]
  GI50: 1.9 µM
  TGI: 3.75 µM
[19]
  GI50: 1.9 µM
  TGI: 3.66 µM
[20]
  GI50: 1.68 µM
  TGI: 3.17 µM
[21]
  GI50: 2.64 µM
  TGI: 8.01 µM
[22]
  GI50: 2.79 µM
  TGI: 10 µM
[23]
  GI50: 1.74 µM
  TGI: 3.13 µM
[24]
  GI50: 1.83 µM
  TGI: 5.04 µM
[25]
  GI50: 1.82 µM
  TGI: 3.53 µM
[26]
  GI50: 1.94 µM
  TGI: 6.18 µM
[27]
  GI50: 2.06 µM
  TGI: 4.6 µM
[28]
  GI50: 1.99 µM
  TGI: 4.31 µM
[29]
  GI50: 1.8 µM
  TGI: 3.38 µM
[30]
  GI50: 6.5 µM
  TGI: 27.8 µM
[31]
  GI50: 1.74 µM
  TGI: 3.24 µM
[32]
  GI50: 2 µM
  TGI: 3.79 µM
[33]
  GI50: 1.76 µM
  TGI: 3.51 µM
[34]
  GI50: 1.9 µM
  TGI: 3.9 µM
[35]
  GI50: 1.78 µM
  TGI: 3.58 µM
[36]
  GI50: 2.11 µM
  TGI: 5.97 µM
[37]
  GI50: 1.71 µM
  TGI: 3.17 µM
[38]
  GI50: 1.71 µM
  TGI: 3.28 µM
[39]
  GI50: 1.74 µM
  TGI: 3.16 µM
[40]
  GI50: 1.56 µM
  TGI: 3.01 µM
[41]
  GI50: 2.01 µM
  TGI: 4.11 µM
[42]
  GI50: 1.68 µM
  TGI: 3.35 µM
[43]
  GI50: 1.75 µM
  TGI: 3.18 µM
[44]
  GI50: 1.89 µM
  TGI: 3.95 µM
[45]
  GI50: 1.5 µM
  TGI: 3 µM
[46]
  GI50: 2.57 µM
  TGI: 4.22 µM
[47]
  GI50: 1.93 µM
  TGI: 4.1 µM
[48]
  GI50: 1.9 µM
  TGI: 3.5 µM
[49]
  GI50: 1.62 µM
  TGI: 3.28 µM
[50]
  GI50: 2.31 µM
  TGI: 7.01 µM
[51]
  GI50: 1.9 µM
  TGI: 3.45 µM
[52]
  GI50: 1.73 µM
  TGI: 3.38 µM
[53]
  GI50: 1.84 µM
  TGI: 3.57 µM
[54]
  GI50: 1.62 µM
  TGI: 5.91 µM
[55]
  GI50: 1.84 µM
  TGI: 3.56 µM
[56]
  GI50: 1.83 µM
  TGI: 3.53 µM

## NC(N)=Nc1ccc(Oc2cccc(Nc3ccc(Br)c(C(F)(F)F)c3)c2)cn1
[6]
  GI50: 2.04 µM
  TGI: 3.68 µM
[22]
  GI50: 2.07 µM
  TGI: > 100 µM
[23]
  GI50: 1.75 µM
  TGI: 3.2 µM
[24]
  GI50: 1.63 µM
  TGI: 4.12 µM
[27]
  GI50: 3.93 µM
  TGI: 29.5 µM
